Data from patent US20120202801A1, “METHODS FOR TREATING BREAST CANCER” (priority 2009, published 2012).
Marks after values point to notes of the source that are not given here.

Tests used:
[1] = tested on: HT1080 cells; assay: Cell cycle analysis by propidium iodide flow cytometry in HT1080 cells (% cells in S-phase); assay type: cell-based, human; settings: for % Cells In S-Phase: HT1080 cells, 100 nM, 18 hours, normoxic, DMSO control 17.3
Experimental: Experimental Design. […] After treatment, cells were trypsinized, and stained with propidium iodide (PI) dye to measure DNA content of individual cells by flow cytometry. Output comprised histograms showing relative DNA content in 10,000 cells.
While compounds which cause greater than 20% of the cells to accumulate in S-phase at 100 nM are considered active, a larger percentage of cells may be accumulated in S-phase at lower doses depending on the Compound, as shown in FIG. 12 for example.

[2] = tested on: HT1080 xenografts; assay: Time course of tumor size and plasma human VEGF in HT1080 xenografts; assay type: in vivo, mice; settings: by Day 1
Experimental: (§1) Experimental Design. HT1080 cells (5×10^6 cells/mouse) were implanted subcutaneously in male athymic nude mice.
Tumor size was measured by calipers immediately pre-treatment and at the time of sacrifice on Day 1, 2, or 3 (5 mice per group per day). At sacrifice, the plasma was collected for assay of pathologic human VEGF concentration using an ELISA that recognizes human VEGF121 and VEGF165 (as described in Section 9.1.1.1).

[3] = tested on: HT1080 xenografts; assay: BrdU labeling of tumor cells from HT1080 xenografts in vivo; parameters: species or system mice; settings: 1, 2, or 3 days of treatment
Experimental: as §1
The mice were sacrificed 3 hours later, and the tumors collected. A single cell suspension was prepared from the tumor cells. The cells were permeabilized and an antibody to BrdU was used to stain cells that had entered S phase during the labeling period. The proportion of cells actively synthesizing DNA was determined by cell sorting.

[4] = tested on: human VEGF121 and VEGF165; assay: Intra-tumor and pathologic plasma human VEGF in HT1080 xenografts, Compound 1205 (studies #21, #23); assay type: in vivo, mice
Text: Experimental Design. HT1080 cells (5×10^6 cells/mice) were implanted subcutaneously into male athymic nude mice. Treatment with vehicle alone or Compound 1205 was initiated when the median tumor volume was approximately 311±88 mm^3. Table 7 and Table 9 (study design #21 and #23) provide the study design for assessing tumor and plasma pathologic VEGF concentrations—each group in each study included eight (8) mice. When the tumors in vehicle-treated mice had reached the target size of ˜1200 mm^3 for study #21 and ˜1500 mm^3 for study #23, all mice in the study were sacrificed, and excised tumors were homogenized in buffer containing protease inhibitors. Both intra-tumor and pathologic plasma human VEGF levels were measured using an ELISA that recognizes human VEGF121 and VEGF165. Intra-tumor VEGF levels were normalized to the total tumor protein concentration and pathologic plasma VEGF levels were expressed in pg/mL. Because smaller tumors produce less VEGF per mg of tumor protein, intra-tumor VEGF levels were normalized to tumor size.

[5] = tested on: HT1080 xenografts; assay: HT1080 xenograft tumor growth, Compound 1205, 1330 and Compound #10 (studies 21-24b); assay type: in vivo, mice
Text: Experimental Design. HT1080 cells (5×10^6 cells/mouse) were implanted subcutaneously in male athymic nude mice. […] For comparison, Compound #10 was included in this study.

[6] = tested on: aromatase-overexpressing MCF-7 xenografts; assay: Aromatase-overexpressing MCF-7 breast cancer xenograft, combination with letrozole; assay type: in vivo, mice; settings: for Mean % Inhibition of Tumor Size vs Vehicle at Day 42 / Proportion Cured: aromatase-overexpressing MCF-7 xenografts, nude mice
Experimental: Experimental Design. Aromatase-overexpressing, estrogen-sensitive MCF-7 cells (7.0×10^6 cells/mouse) were implanted subcutaneously in ovariectomized female athymic nude mice. Androstenedione pellets (6 mg/pellet) were implanted 1 day prior to cell implantation.
Tumor size was measured by calipers at periodic intervals during the study. When the individual tumor size in a mouse exceeded 1500 mm^3, or after 98 days of treatment, that mouse was sacrificed.

[7] = tested on: MCF-7 xenografts; assay: MCF-7 estrogen-sensitive breast cancer xenograft, combination with tamoxifen; assay type: in vivo, mice
Experimental: Experimental Design. […] Estrogen pellets (0.72 mg/pellet) were implanted in the mice 9 days prior to cell implantation.
Tumor size was measured by calipers at periodic intervals during the study. After 42 days of treatment, the mice were sacrificed.

[8] = tested on: MCF-7p xenografts; assay: Aggressive MCF-7p estrogen-sensitive breast cancer xenograft, combination with tamoxifen; assay type: in vivo, mice
Experimental: (§2) Aggressively growing, estrogen-sensitive MCF 7 breast cancer cells (hereafter referred to as MCF-7p) were passaged in vivo prior to use to generate a more aggressive cell line. Tumors were excised from donor mice, passed through a sterile mesh, and suspended in 0.9% sodium chloride, and 20 mg of this suspension was mixed 1:1 with Matrigel™. These tumor fragments were implanted subcutaneously into female athymic nude mice bearing estrogen pellets (0.72 mg/pellet) that had been inserted 2 days previously. After 28 days, when the tumors had become established and grown to a substantial size (i.e., the mean tumor size had reached ˜435 mm^3), mice were divided into 4 groups, and treatment was administered as shown in Table 34.
Tumor size was measured by calipers at periodic intervals during the study. When the mean tumor size in a group had reached 1500 mm^3, or after 72 days of treatment, the mice in the group were sacrificed.

[9] = tested on: MCF-7p xenografts; assay: Aggressive MCF-7p estrogen-sensitive breast cancer xenograft, combination with paclitaxel; assay type: in vivo, mice
Experimental: as §2, with “Experimental Design. Aggressively” for “Aggressively”, “˜430” for “˜435”, “30.” for “34.”
Tumor size was measured by calipers at periodic intervals during the study. After tumors in a given group had reached an average size of ˜1500 mm^3, the mice in that group were sacrificed; after 72 days of treatment, any remaining groups were taken off study.

[10] = Letrozole (high-dose), 30 μg/mouse Oral QD
[11] = Letrozole (low-dose), 10 μg/mouse Oral QD
[12] = 42 days of treatment, combination = Compound #10 with tamoxifen
[13] = Tamoxifen alone, 10 mg/kg QD, nude mice
[14] = Tamoxifen alone, 8 mg/kg Oral QD, nude mice
[15] = Paclitaxel alone, 10 mg/kg IV Days 2, 5, 9, 12, 15, nude mice

NC(Cn1ccc(=O)c(O)c1)C(=O)O (centres unmarked) [mimosine, reference compound]
delay or prolongation of the cell cycle ([1]; same tumor cells, data not shown): does not delay or prolong the cell cycle or reduce VEGF production

COc1cccc2c1C(=O)c1c(O)c3c(c(O)c1C2=O)C[C@@](O)(C(=O)CO)C[C@@H]3O[C@H]1C[C@H](N)[C@H](O)[C@H](C)O1 [doxorubicin]
pathologic plasma human VEGF levels vs control [2]: numerically lower than in control animals | BrdU staining of tumor cells (proportion of cells in S phase) [3]: decreased the percentage of tumor cells staining with BrdU

O=C(Oc1ccc(Cl)cc1)N1CCc2c([nH]c3ccc(Cl)cc23)[C@@H]1c1ccc(OCC[C@H](O)CO)cc1 [Compound 1205]
inhibition of both tumor and pathologic plasma human VEGF levels ([4]; 0.5 or 3 mg/kg QD): more than 95% | Mean difference in human tumor VEGF (%) at Day 14 ([4]; Study #21, 3 mg/kg QD, 14 days): 98%** | Final mean terminal tumor size in treatment group ([5]; Study 21: 3 mg/kg QD): 379 mm^3 | Final mean terminal tumor size in treatment group ([5]; Study 22: 0.5 mg/kg QD): 1750 mm^3 | Difference vs. vehicle in median number of days to reach 1000 mm^3 ([5]; Study 22: 3 mg/kg QD): 14** Days | Final mean terminal tumor size in treatment group ([5]; Study 22: 3 mg/kg QD): 1840 mm^3 | Difference vs. vehicle in median number of days to reach 1000 mm^3 ([5]; Study 24a: 10 mg/kg QD): 14** Days | Mean difference in tumor growth rate at the Day that the vehicle-treated tumors taken off study (%) ([5]; Study 24a: 10 mg/kg QD, Day 11): 76%** | Difference vs. vehicle in median number of days to reach 1000 mm^3 ([5]; Study 24b: 0.3 mg/kg QD): 0.7 days | Final mean terminal tumor size in treatment group ([5]; Study 24b: 0.3 mg/kg QD): 1540 mm^3

O=C(Oc1ccc(Cl)cc1)N1CCc2c([nH]c3ccc(Cl)cc23)C1c1ccc(OCCN2CCCCC2)cc1 (centres unmarked)
% Cells In S-Phase [1]: 16.8%

N#Cc1ccc(C(c2ccc(C#N)cc2)n2cncn2)cc1 [letrozole]
Mean % Inhibition of Tumor Size vs Vehicle at Day 42 [6, 10]: 79% | Proportion Cured [6, 10]: 20% | Mean % Inhibition of Tumor Size vs Vehicle at Day 42 [6, 11]: 72% | Proportion Cured [6, 11]: 10% | tumor growth ([6]; high-dose letrozole): tumor regression was observed | tumor growth ([6]; low-dose letrozole): tumor growth was prevented but tumor reduction was not observed

CC/C(=C(\c1ccccc1)c1ccc(OCCN(C)C)cc1)c1ccccc1 [Tamoxifen, tamoxifen]
mice cured (%) [7, 12]: 70% | mice cured (number) [7, 12]: 7 of the 10 | Mean % Inhibition of Tumor Size vs Vehicle at Day 42 [7, 13]: 84% | Proportion Cured [7, 13]: 70% | tumor regression and growth delay ([7]; combination = Compound #10 with tamoxifen): tumor regression and growth delay were observed | tumor growth [8]: only modestly delayed tumor growth | Mean % Inhibition of Tumor Size vs Vehicle at Day 26 [8, 14]: 33* % | Median Time to Tumor Size ≧1000 mm^3 [8, 14]: 24 days

CC(=O)O[C@H]1C(=O)[C@@]2(C)[C@H]([C@H](OC(=O)c3ccccc3)[C@]3(O)C[C@H](OC(=O)[C@H](O)[C@@H](NC(=O)c4ccccc4)c4ccccc4)C(C)=C1C3(C)C)[C@]1(OC(C)=O)CO[C@@H]1C[C@@H]2O [Paclitaxel, paclitaxel]
tumor growth [9]: transient cytoreduction and a tumor growth delay | Mean % Inhibition of Tumor Size vs Vehicle at Day 26 [9, 15]: 78* % | Median Time to Tumor Size ≧1000 mm^3 [9, 15]: 47 days

O=C(Oc1ccc(Cl)cc1)N1CCc2c([nH]c3ccc(Cl)cc23)C1c1ccc(OCCN2CCOCC2)cc1 (centres unmarked) [drawing 535]
% Cells In S-Phase [1]: 16.4%
